Measured values: patent US20250345469A1, “COMPOSITION COMPRISING A RAPALOG AND A RADIOLABELLED GASTRIN ANALOGUE, IN PARTICULAR FOR USE IN THE TREATMENT AND/OR DIAGNOSIS OF CCKB RECEPTOR POSITIVE CANCER OR TUMORS” (Paul Scherrer Institut, priority 2020, published 2025)
Where two headings read alike, the source gives them in different places.

Assays:
A431/CCKBR cells [1] = assay: Proliferation assay (CellTiter 96 AQueous, MTS); format: cell-based, human; details: 10 μM kinase inhibitor; FIG. 1C
Protocol: Cells were seeded in 96-well plates before treatment as described above, and cell proliferation was analyzed by a CellTiter 96 AQueous Non-Radioactive Cell Proliferation Assay (Promega) according to the manufacturer's instructions. Absorbance of MTS bio-reduced into a formazan was measured at 570 nm with a reference of 650 nm using a MicroPlate Reader (PerkinElmer). The assay was performed in triplicate.

A431/CCKBR cells [2] = assay: In vitro radiolabelled peptide internalization assay; format: cell-based, human; details: for Protein levels as compared to control: A431/CCKBR cell lysates, 20 h treatment, FIG. 2B; for membrane bound activity: treated vs control cells, FIG. 2A
Protocol: (§1) 2.5×10^5 cells were seeded on 6-well plates. Eight hours later cells were treated with appropriate inhibitors (as indicated) for 20 h. […] After 1 or 2 h incubation, radioactive medium (together with PBS wash) was collected and the cells were subjected to 2× wash with glycine buffer (pH=2) for 5 min at RT followed by a dissolving step in 1 M NaOH for 15 min at 37° C. […] Protein concentration of NaOH-dissolved cell lysates was measured by spectrophotometry using a NanoPhotometer® UV-Vis P-Class (Implen).

AR42J cells = assay: as above; format: cell-based, rat; details: AR42J cell lysates, FIG. 2B
Protocol: as §1

[3] = system: mTORC1-regulated phosphorylation of ribosomal protein S6 at Ser235/236; assay: WB analysis of phospho-S6 (mTORC1 activity); format: cell-based, human; details: A431/CCKBR cells, 20 h treatment, FIG. 2C
Protocol: The inhibitor activity of the rapamycin and/or rapalog towards mTORC1 can be determined by measuring the level of phosphorylation of ribosomal protein S6 by Western Blot analysis as described further below.
(§2) Antibodies against phospho-S6 at S235/S236 (D57.2.2F) and GAPDH (14C10) were obtained from Cell Signaling Technology, whereas anti-CCKBR (ab77077) was from Abcam. Cells were homogenized in lysis buffer (50 mM Tris-HCl pH 7.5, 150 mM NaCl, 1% Triton X, 0.1% SDS supplemented with 1 mM sodium orthovanadate, 1 mM NaF and protease inhibitor cocktail (Roche)). Aliquots of 50 μg protein extracts were separated by SDS-PAGE and transferred to PVDF membranes (Millipore) by electroblotting. Membranes were blocked with 5% skim milk in TBST (0.1% Tween 20) for 1 h, and incubated with 2% BSA in TBST overnight with the primary antibody followed by 2 h incubation with HRP-conjugated secondary antibody. Protein-specific signals were detected by a chemiluminescence reagent (ECL) and signals were acquired by using ImageQuant RT ECL Imager (GE Healthcare).

CCKBR = assay: WB analysis of CCKBR expression in deglycosylated lysates; format: cell-based, human; details: 50 nM or 100 nM RAD001, 20 h, A431/CCKBR cells
Protocol: For CCKBR-specific knock-down, duplex siRNAs against CCKBR or control duplex against luciferase (Microsynth) were used at a final concentration of 100 nM in Optimem (Gibco): CCKBRseq1 sense RNA 5′-[…]dTdT-3′(SEQ ID NO:5), CCKBRseq2 sense RNA 5′-[…]dTdT-3′(SEQ ID NO:6) and control sense RNA 5′-[…]dTdT-3′(SEQ ID NO:7). Cells at 60-80% confluence were transfected with siRNAs by using Lipofectamin 3000 according to the user's manual. Total protein lysates were subjected to WB analysis.
as §2, with “Healthcare). […]” for “Healthcare).”

A431/CCKBR tumors = assay: Immunochemistry (HE and Ki67 staining) of tumor sections; format: in vivo, mouse; details: five daily doses; for necrosis (percent of necrotic area): PBS-treated tumors 1.4±1.2%; for mitotic index: control 1.08±0.2%; for Ki67 positive cells: control 80±3.1%
Protocol: Paraffin sections of formalin-fixed A431/CCKBR tumors were subjected to deparaffinization. Rehydrated slides were pretreated in 10 mM citrate buffer, pH 6.0, at 98° C. for 60 minutes, followed by incubation with 4% fat-free milk in PBS for 90 minutes. For avidin/biotin blocker treatment (Invitrogen) and detection, the ABC method was used according to the manufacturer's instructions. For monoclonal antibody against Ki67 (Thermo Scientific, SP6) signals were recorded using an automated instrument reagent system (Discovery XT, Ventana Medical System Inc.) according to the user manual. Images of hematoxylin-counterstained sections were captured (Nikon, YTHM) and analyzed using ImageAccess Enterprise7 and ImageJ software (Schneider et al. Nat Methods 2012, 9(7), 671-675).
Paraffin tumor sections prepared from A431/CCKBR-tumor bearing nude mice treated with five daily doses of RAD001, metformin and PBS (control) were subjected to immunohistochemistry. RAD001 and PBS group includes 5 tumors, while in metformin group 4 tumors were analyzed.

[4] = system: A431/CCKBR-tumor bearing nude mice; assay: Animal therapeutic study: tumor growth and survival; format: in vivo, mouse; details: for average tumor size on day 13: control 0.97 cm^3; for Median Survival: control 19.5
Protocol: For the animal study, human epidermoid carcinoma A431 cell line, which overexpresses CCKBR, was generated previously and kindly provided by Dr. Luigi Aloj. A431/CCKBR cells were cultured in DMEM, supplemented with 10% FCS, 2 mM glutamine and antibiotics (0.1 mg/mL streptomycin, 100 IU penicillin) at 37° C. and 5% CO2. […] RAD001 (3 mg/kg), or PBS (control) were administered via intraperitoneal injection daily for 5 or 10 days, as indicated. […] The tumor diameters and mice weight were recorded daily. The tumor volume was calculated by using the formula V=(W2×L)/2. The nude mice were sacrificed when the tumor volume exceeded 1.5 cm^3. […] These mice were excluded from the analysis.
In this experiment, GraphPad Prism 7.00 for Windows was used for all statistical analysis. One-way ANOVA combined with two-stage linear step-up procedure of Benjamini, Krieger and Yekutieli for multiple comparison test was used for all treated groups. Log-rank (Mantel-Cox) test was performed to compare different survival curves of the treatment groups with the control group. Endpoints were defined as death in the survival curves. Values of P≤0.05 were considered statistically significant.

A431/CCKBR xenograft [5] = assay: Biodistribution study in A431/CCKBR xenograft mouse model; details: three daily doses, FIG. 7B
Protocol: (§3) Immunocompromised CD-1 female nude mice (Charles Rivers, Germany) were housed one week before experimentation. Prior to tumor implantation, A431/CCKBR cells were harvested and 5 min cells in 0.1 mL of sterile phosphate-buffered saline (PBS) containing 0.9% NaCl were injected subcutaneously (two tumors per animal) into mice anesthetized by isoflurane/oxygen inhalation. After 5 days, animals were randomly distributed into 3 experimental groups and tumor size was measured non-invasively with a caliper. RAD001 (3 mg/kg), metformin (200 mg/kg) or PBS (control) were administered daily via intraperitoneal injection for 3 or 5 consecutive days, as indicated. […] Post mortem dissected tumors and organs were weighed and their activity was measured in a gamma counter.
(§4) To investigate the effects of RAD001 and metformin in vivo, A431/CCKBR cells were implanted subcutaneously into immunocompromised nude mice, and 5 days later after tumor formation, mice were subjected to treatment with RAD001, metformin or PBS (control) as described above.

A431/CCKBR xenograft [6] = details: in vivo
Protocol: as §3, §4

## O=C(O)c1ccc2nc(-c3ccccc3)c(-c3ccccc3)nc2c1 [BML257]
A431/CCKBR cells [1]
  changes in cell proliferation: did not show significant changes in cell proliferation

## CO[C@H]1C[C@@H]2CC[C@@H](C)[C@@](O)(O2)C(=O)C(=O)N2CCCC[C@H]2C(=O)O[C@H]([C@H](C)C[C@@H]2CC[C@@H](OCCO)[C@H](OC)C2)CC(=O)[C@H](C)/C=C(\C)[C@@H](O)[C@@H](OC)C(=O)[C@H](C)C[C@H](C)/C=C/C=C/C=C/1C [RAD001, Everolimus]
A431/CCKBR cells [2]
  Protein levels as compared to control: 80%
  membrane bound activity: no significant difference in membrane bound activity
AR42J cells
  Protein levels as compared to control: 84%
[3]
  phosphorylation of ribosomal protein S6 at Ser235/236: lack of mTORC1-regulated phosphorylation of ribosomal protein S6 at Ser235/236
CCKBR
  increase of the CCKBR expression: approximately 2.2 fold
A431/CCKBR tumors
  necrosis (percent of necrotic area): 10.6±6.4%
  mitotic index: 0.75±0.36%
  Ki67 positive cells: 61±8.6%
[4]; 5 doses of RAD001 (3 mg/kg i.p. daily)
  average tumor size on day 13: 0.31 cm^3
[4]; 10 doses of RAD001 (3 mg/kg i.p. daily)
  average tumor size on day 13: 0.11 cm^3
[4]; RAD001 5x
  Median Survival: 27 days
[4]; RAD001 10x
  Median Survival: 32 days
[4]; vs control, FIG. 10B
  tumor growth: significantly inhibited tumor growth
A431/CCKBR xenograft [5]
  mouse weight: without influencing overall mouse weight
  tumor volume: significantly reduced tumor volumes

## CN(C)C(=N)N=C(N)N [metformin]
A431/CCKBR cells [2]
  Protein levels as compared to control: 79%
  membrane bound activity: no significant difference in membrane bound activity
[3]
  phosphorylation of ribosomal protein S6 at Ser235/236: lack of mTORC1-regulated phosphorylation of ribosomal protein S6 at Ser235/236
A431/CCKBR tumors
  necrosis (percent of necrotic area): did not show significant difference
  mitotic index: did not cause significant change
  Ki67 positive cells: did not cause significant change
A431/CCKBR xenograft [6]
  mouse weight: no effect on tumor volume or mouse weight
A431/CCKBR xenograft [5]
  tumor volume: no effect on tumor volume or mouse weight

## CO[C@H]1C[C@@H]2CC[C@@H](C)[C@@](O)(O2)C(=O)C(=O)N2CCCC[C@H]2C(=O)O[C@H]([C@H](C)C[C@@H]2CC[C@@H](O)[C@H](OC)C2)CC(=O)[C@H](C)/C=C(\C)[C@@H](O)[C@@H](OC)C(=O)[C@H](C)C[C@H](C)/C=C/C=C/C=C/1C [rapamycin]
A431/CCKBR cells [1]
  changes in cell proliferation: did not show significant changes in cell proliferation
